In brackets after ≈: the same amount, converted by molar mass. Entries after “also recorded” stand apart in the source; their conditions may differ. Like-named read-outs stand apart in the source and are kept apart here.
Legend:
[1] = comparison detergent, source not given; cited from earlier work
[2] = CMC by dye uptake (orange OT); type: physicochemical
Description: Triphenylacetic acid 4.0 has a novel amphiphilic geometry and is commercially available.
The addition of the t-butyl group accomplished the goal of increasing the hydrophobic surface area, as indicated by the diminished CMC's.
The CMC of a detergent can be determined experimentally by measuring the solubilization of a water-insoluble dye or fluorophore while varying the concentration of detergent. CMC may also be determined by measuring the diminution of the surface tension of an aqueous solution as a function of detergent concentration. (CMC's determined by either method correlate with each other.) The CMC is determined by extrapolating the plot of solubilization vs. concentration (or surface tension vs. concentration) in the two linear regions above and below the CMC. Where the two lines intersect is the CMC. In this Example, CMC's were determined by the method of Nugebauer, J. M. (1990), Methods in Enzymology, 182:239-253: […]

[3] = Aqueous solubility; type: physicochemical; details: water
[4] = CMC by uptake of fluorescent dye 1,6-diphenylhexatriene, fluorescence spectroscopy; type: physicochemical
Procedure: The CMCs of detergents 4.65-4.72 were determined by monitoring the uptake of a fluorescent dye (1,6-diphenylhexatriene) with increasing detergent concentration (Table 1, CMC's determined by dye uptake versus concentration monitored by fluorescence spectroscopy). The CMCs of N-oxide isomers 4.65, 4.67, and 4.68 are very similar: 3 mM, 3 mM, and […], respectively. […] The CMCs for the N-oxides 4.65 and 4.66 are twice the CMCs of the corresponding hydrochloride salts (4.78 and 4.79). The hydrochloride salts were formed from the amine precursors to the N-oxides. Most cationic detergents have CMCs that are much higher than non-ionic or zwitterionic analogs. For example, dodecylammonium bromide has a CMC of 15 mM which is >7 times larger than the CMC of the N-oxide analog (LDAO, CMC=2 mM).
The CMCs of 4.100 and 4.104 were determined by the uptake of the fluorescent dye 1,6-diphenylhexatriene. The CMCs are 0.125 mM and 0.700 mM respectively. These values are substantially lower than the CMC of 4.65, which was determined to be 3 mM.
The CMC of a detergent can be determined experimentally by measuring the solubilization of a water-insoluble dye or fluorophore while varying the concentration of detergent. CMC may also be determined by measuring the diminution of the surface tension of an aqueous solution as a function of detergent concentration. (CMC's determined by either method correlate with each other.) The CMC is determined by extrapolating the plot of solubilization vs. concentration (or surface tension vs. concentration) in the two linear regions above and below the CMC. Where the two lines intersect is the CMC. In this Example, CMC's were determined by the method of Nugebauer, J. M. (1990), Methods in Enzymology, 182:239-253:
Tripod solutions in aqueous solutions containing 25 mM sodium phosphate pH 6.9 were prepared and transferred to screw-capped vials, and […] of a 1,6-diphenylhexatriene solution (DPH, 3.125 mM DPH in THF) was added. The solutions were vortexed at room temperature for 30 seconds. The solutions were placed into a 3 mm×3mm quartz cell and the fluorescence spectrum was obtained (excitation 358 nm, emission 430 nm, excitation slit width=1 mm, emission slit width=20 nm, PMT voltage=700). The fluorescence intensity of each sample was plotted against amphiphile concentration. […] The data points immediately surrounding the CMC were not considered due to non-linear behavior. See Tables 1 and 2, above, for the results.

[5] = target: T1, Bacteriorhodopsin (BR) (Halobacterium salinarum, UniProt P02945); assay: Solubilization of bacteriorhodopsin (BR) from purple membrane (PM)
T1 construct: We used BR solubilization from the PM to evaluate tripod detergents; endogenous in cells
T1 sequence (P02945 14-261 limits assumed): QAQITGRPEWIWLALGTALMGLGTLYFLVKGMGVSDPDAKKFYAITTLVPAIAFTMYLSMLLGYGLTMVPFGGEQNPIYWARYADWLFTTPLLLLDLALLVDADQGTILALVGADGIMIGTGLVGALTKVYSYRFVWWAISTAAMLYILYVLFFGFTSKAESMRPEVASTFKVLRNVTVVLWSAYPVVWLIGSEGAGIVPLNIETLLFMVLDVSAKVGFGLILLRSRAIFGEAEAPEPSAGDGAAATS
Procedure: We used BR solubilization from the PM to evaluate tripod detergents synthesized using the modular synthetic approach described above. The retinal chromophore of BR allowed us to quantify solubilized material by UV. Solubilized BR is defined as the intact protein left in the supernatant after a sample is centrifuged for 30 minutes at 300,000 g. The percent BR solubilized is determined by dividing the absorbance of the supernatant by the absorbance of the solution before centrifugation.
Solubilization experiments were conducted by making a series of solutions with constant concentration of PM and varying the concentration of detergent. […] The absorbance at the λmax (between 540 nm and 570 nm) was then measured, and immediately afterward the samples were centrifuged for 30 minutes at 300,000 g. The supernatant was carefully removed so as not to disturb pelleted material. Absorbance measurements were made again, and the ratio of the supernatant absorbance to the absorbance before centrifugation provided the percent solubilization.

[6] = tested on: BR; assay: Loss of exciton coupling of BR by CD spectra (rate of solubilization); set-up: species or system Halobacterium; details: room temperature
Procedure: Tripod detergents 4.65 and 4.66 were tested in this fashion and shown to solubilize BR from the PM quite rapidly. To measure whether the solublized BR was present in a monomeric state, CD spectra of the supernatants were taken. When suspended within the native PM, BR yields a distinct sigmoidal CD spectrum due to exciton coupling between adjacent retinal chromophores. It has been shown that the strength of the exciton coupling is directly proportional to the concentration of retinal chromophore in the PM. Because the exciton coupling requires retinals to be held in a fixed geometry (as when suspended in the PM), the solubilization of BR can be measured in terms of the loss of exciton coupling. […] Exciton coupling was completely gone after less than 10 minutes for samples solubilized by 4.65 and 4.66, a time period which is faster than the time required to obtain a CD spectrum.

[7] = target: T1, Bacteriorhodopsin (BR); details: reported detergents; cited from earlier work
[8] = CMC values of conventional detergents quoted for comparison; type: physicochemical

Compound: CCCCCCCCCCCC[N+](C)(C)[O-] [DDAO, dodecylammonium-N-oxide]
- CMC [1]: 10.4 mM

Compound: O=C(O)C(c1ccccc1)(c1ccccc1)c1ccccc1 [Detergent 4.1]
- CMC ([2]; orange OT uptake): 130 mM
- solubility ([3]; read-out: solubility): 210 mM (≈ 60.6 mg/mL)

Compound: C[N+](C)([O-])CCN(CC[N+](C)(C)[O-])C(=O)CC(c1ccccc1)(c1ccccc1)c1ccccc1 [Detergent 4.10]
- CMC ([2]; dye uptake): about 80 mM
- solubility in water (in words) [3]: very soluble in water
- solubility ([3]; read-out: solubility in water): > 2000 mM

Compound: CC(C)(C)c1ccc(C(CC(=O)N(CC[N+](C)(C)[O-])CC[N+](C)(C)[O-])(c2ccccc2)c2ccccc2)cc1 [Detergent 4.20]
- CMC ([2]; dye uptake): about 12.5 mM

Compound: CCCCC(CCCC)(CC(=O)NCCC[N+](C)(C)[O-])c1ccccc1 [Detergent 4.66]
- CMC of N-oxide relative to corresponding hydrochloride salt ([4]; 4.65 vs 4.78, 4.66 vs 4.79): twice
- CMC (Critical Micelle Concentration) ([4]; uptake of 1,6-diphenylhexatriene, 25 mM sodium phosphate pH 6.9, Table 1 and text): 4.5 mM
- BR solubilization (in words) [5]: readily solubilize BR; also recorded: can solubilize BR
- rate of BR solubilization (in words) [6]: quite rapidly; also recorded: too rapid to monitor the loss of exciton coupling
- time to complete loss of exciton coupling [6]: less than 10 minutes

Compound: CCCCCCCCO[C@@H]1O[C@H](CO)[C@@H](O)[C@H](O)[C@H]1O [OG]
- removal of BR from the purple membrane (in words) [7]: successfully remove BR from its native environment

Compound: Br.CCCCCCCCCCCCN [dodecylammonium bromide]
- CMC ratio, dodecylammonium bromide vs N-oxide analog (LDAO) [8]: > 7 times larger
- CMC [1]: 15 mM

Compound: CCCCCCCCCO[C@@H]1O[C@H](CO)[C@@H](O)[C@H](O)[C@H]1O [nonyl glucoside (NG), nonyl glucoside]
- removal of BR from the purple membrane (in words) [7]: successfully remove BR from its native environment

Compound: Triton X-100 [reference compound]
- BR solubilization (in words) [5]: effective at solubilizing BR
- time to solubilize BR ([5]; pH 5): 49 h
- time to solubilize BR ([5]; pH 6.9): 24 h
- removal of BR from the purple membrane (in words) [7]: successfully remove BR from its native environment

— US6172262A, “Amphiphilic agents for membrane protein solubilization” (priority 1999, dated 2001)
